Measurements published in patent publication US20130184272A1, “DIABETES THERAPEUTIC AGENT” (TAKEDA PHARMACEUTICAL COMPANY LIMITED, priority 2010, published 2013).

Assays:
C2C12 cells [1] = experiment: ATP content in muscle cell; type: cell-based, Mouse; conditions: for ATP content: two days, control group 100
Procedure: • (1) In the same manner as in Example 1, C2C12 cells were cultured in a growth medium to not less than 90% confluence. • (2) The medium was exchanged with a differentiation medium, and the cells were cultured until observation of myotube formation under a microscope. • (3) The compounds of Reference Example 1 and Reference Example 7 were added, and the cells were cultured for two days. • (4) ATP content was measured using Cell Titer-Glo™ Luminescence cell viable assay (Promega) and succinic acid dehydrogenase activity of mitochondria was measured using Cell Counting Kit-8 (Dojin). The data of Table 17 show mean±standard deviation at n=3-4 (n is the number of samples).

Female KKA^y mice = experiment: Anti-diabetes action and dyslipidemia improving effect in KKA^y mouse; type: in vivo; conditions: 2 weeks, control group = 100
Procedure: Female KKA^y mice (12-week-old, CLEA Japan, Inc.) were bred while allowing free ingestion of both feed and water. The mice were bred for acclimation with powder CE-2 (CLEA Japan, Inc.) from 2 weeks before administration of the compound. The body weight and plasma markers were measured and, at 14 weeks of age, they were divided such that the measured values were uniform with those of the control group. The compound of Reference Example 1, 2, 7, 8, 9 or 22 was administered for 2 weeks in a mixed feed (0.01-0.0001%). On the last day, plasma levels of glucose, insulin, total cholesterol and neutral lipid were measured.

C2C12 cells [2] = experiment: Sugar uptake promoting activity in muscle cell (2DG uptake); type: cell-based, Mouse; conditions: for 2DG uptake (%): control group (DMSO) = 100%
Procedure: • (1) In the same manner as in Example 1, C2C12 cells were cultured in a growth medium to not less than 90% confluence. • (2) The medium was exchanged with a differentiation medium, and the cells were cultured until observation of myotube formation under a microscope. • (3) The compounds of Reference Example 1 and Reference Example 7 were added, and the cells were cultured overnight. • (4) The cells were washed with krebs-ringer HEPES phosphate buffer added with 1% bovine serum albumin, cultured for 30 min in this buffer, 2-deoxyglucose (2DG) (0.1 mM, 0.8 μCi/250 μL) was added and the cells were cultured at 37° C. for 75 min. • (5) The cells were washed 4 times with PBS, MicroScint-20 (125 μL/well, PerkinElmer) was added and the radioactivity was measured by a scintillation counter. DMSO (dimethyl sulfoxide) alone was added to the control group. The numerical values of 2DG uptake in Table 10 are relative values to the control group as 100%.
The data in Table 10 show mean±standard deviation at n=6 (n is the number of samples).

[3] = system: Mouse-derived myoblast line C2C12 cell; experiment: Cell differentiation promoting activity in myoblast (creatine kinase activity); type: cell-based; conditions: Mus musculus, C2C12, 48 h; compound at 0.01 μM (**); 2 days; without compound = 100%; read-out: creatine kinase activating action (%)
Procedure: • (1) Mouse-derived myoblast line C2C12 cell (Dainippon Pharmaceutical Co., Ltd.) was subcultured in a high glucose Eagle's modified Dulbecco's medium (GIBCO) added with 10% calf fetal bovine serum (GIBCO), 100 unit/mL penicillin and 100 μg/mL streptomycin (hereinafter to be referred to as a growth medium), plated at 5000 cells/cm^2 and cultured at 37° C., under 5% CO2. • (2) When the cells reached subconfluence of not less than 90%, the medium was exchanged with high glucose Eagle's modified Dulbecco's medium (GIBCO) added with (i) 2% horse serum (GIBCO) and (ii) penicillin, streptomycin and a test compound (hereinafter to be referred to as a differentiation medium) and the cells were cultured for 2 days. To the control group was added DMSO solution instead of the test compound. • (3) The cells were washed with PBS, 0.5% NP-40 solution was added, and the cells were lysed by freeze-thawing. The cell extract was centrifuged and the creatine kinase activity in the supernatant was measured as an index of muscle differentiation. The creatine kinase activity was measured using CPKII Test Wako (Wako Pure Chemical Industries, Ltd.) according to the manual of the kit.
The numerical values in Table 1 show creatine kinase activity of the compound addition group when the creatine kinase activity without addition of the compound is 100%, and * means measurement with addition of the compound at 10 μM, ** at 0.01 μM, and others at 1 μM.

| SMILES | ATP content of muscle cells (in words) (C2C12 cells [1]) | ATP content (C2C12 cells [1]; compound 0.01 nM) | ATP content (C2C12 cells [1]; compound 0.1 nM) | ATP content (C2C12 cells [1]; compound 1 nM) | plasma glucose (%) (Female KKA^y mice; mixed feed dose 0.0001 %) | plasma insulin (%) (Female KKA^y mice; mixed feed dose 0.0001 %) | plasma neutral lipid (%) (Female KKA^y mice; mixed feed dose 0.0001 %) | plasma total cholesterol (%) (Female KKA^y mice; mixed feed dose 0.0001 %) | sugar uptake of C2C12 cell differentiated into muscle cell (in words) (C2C12 cells [2]) | 2DG uptake (%) (C2C12 cells [2]; compound 0.1 nM overnight) | 2DG uptake (%) (C2C12 cells [2]; compound 1 nM overnight) | 2DG uptake (%) (C2C12 cells [2]; compound 10 nM overnight) | 2DG uptake (%) (C2C12 cells [2]; compound 100 nM overnight) | activity at 0.01 µM [3] [%] | ATP content (C2C12 cells [1]; compound 10 nM) | ATP content (C2C12 cells [1]; compound 100 nM) | plasma glucose (%) (Female KKA^y mice; mixed feed dose 0.01 %) | plasma insulin (%) (Female KKA^y mice; mixed feed dose 0.01 %) | plasma neutral lipid (%) (Female KKA^y mice; mixed feed dose 0.01 %) | plasma total cholesterol (%) (Female KKA^y mice; mixed feed dose 0.01 %) |
| --- | --- | --- | --- | --- | --- | --- | --- | --- | --- | --- | --- | --- | --- | --- | --- | --- | --- | --- | --- | --- |
| Cc1ncccc1Oc1sc(C(N)=O)c2c1-c1c(cnn1C)CC2 [Ref. Ex. 1, 1-methyl-8-[(2-methylpyridin-3-yl)oxy]-4,5-dihydro-1H-thieno[3,4-g]indazole-6-carboxamide] | did not decrease | 108 ± 1 | 107 ± 0 | 112 ± 1 | 53.2 ± 19.1 | 27.3 ± 19.5 | 38.9 ± 11.0 | 61.6 ± 10.8 | promoted | 89 | 150 | 166 | 187 | 175 | – | – | – | – | – | – |
| Cn1ncc2c1-c1c(Oc3cccnc3)sc(C(N)=O)c1CC2 [Ref. Ex. 7, 1-methyl-8-(pyridin-3-yloxy)-4,5-dihydro-1H-thieno[3,4-g]indazole-6-carboxamide] | did not decrease | – | – | 106 ± 2 | – | – | – | – | promoted | 69 | 100 | 137 | 181 | 183 | 111 ± 3 | 103 ± 4 | 40.3 ± 4.5 | 2.9 ± 1.7 | 33.9 ± 8.6 | 64.8 ± 12.0 |
